Test results taken from patent US20170252433A1, “PSMA-RELATED THERAPIES” (Memorial Sloan Kettering Cancer Center, priority 2014, published 2017).

Experiments:
[1] = test system: PSMA-expressing prostate cancer cells (LNCaP-wt, PC3-hPSMA) and PC3-wt; experiment: Cytoplasmic calcium quantification (Fluo4 assay); format: cell-based, human
Method: Cells were seeded at a density of 10,000 per well on a 96-well plate and grown overnight. Loading of the calcium-sensing dye Fluo4 (Life Technologies, Calrsbad, Calif.) was performed according to the manufacturer's instructions. Where indicated the cells were treated with thapsigargin (1 μM, Tocris, Minneapolis, Minn.), L-Quisqualic acid (110 μM, Tocris), 3,5-DHPG (0.67 mM, Tocris), L-AP3 (125 μM, Tocris), U73122 (50 μM, Tocris), and 2-PMPA (100 μM, Tocris) immediately before measuring calcium levels, with a SpectraMax M5 plate reader (Molecular Devices, Sunnyvale, Calif.).
The effect of PSMA expression on calcium homeostasis in prostate cancer cell lines was evaluated using the fluorimetric Fluo4 assay kit (Invitrogen), according to the supplier's instructions. The plate was excited at 490 nm, and fluorescence emission was monitored at 520 nm with the SpectraMax M5 plate reader (Molecular Devices). […] To examine calcium accumulation in the cytoplasm, the cells were treated with thapsigargin (1 μM, Tocris) immediately prior to taking measurements with the plate reader. […] Furthermore, we investigated whether PSMA facilitates calcium signaling via the mGluR Group I receptors through its enzymatic activity. The cells were treated with either L-Quisqualic acid (110 μM; mGluR I agonist, Tocris), L-AP3 (125 μM; mGluR I antagonist, Tocris) or a PSMA inhibitor (100 μM, Tocris), immediately prior to taking calcium measurements.

[2] = test system: LNCaP, LNCaP-KD, PC3-PSMA and PC3-wt cells; experiment: In vitro chemotherapy, cell viability (Alamar blue); conditions: 200 nM, overnight
Method: Cells were seeded in a 96-well format (2,500 cells per well), and grown for 48 h. They were then treated with the following drugs at a final concentration of 200 nM: Doxorubicin, Taxol, AZD6244, BEZ235, Lapatinib, and Velcade (all purchased from Selleck Chemicals, Houston, Tex.). For combination therapy, cells were treated with 2-PMPA (5 μM final concentration). After overnight incubation in the presence of the drugs, cell viability was determined with the Alamar blue method according to the supplier's guidelines (Life Technologies, Carlsbad, Calif.)
Given that PSMA affects the phosphorylation status of multiple targets, it was investigated whether inhibition of PSMA can counteract resistance to various chemotherapeutics used in the clinic or under clinical trials. LNCaP and PCS3-PSMA cells were seeded at a density of 2,500 cells per well in a 96-well format, and after 48 hours growth the cells were treated with the drugs (Doxorubicin (Adriamycin; DNA intercalator), Taxol (Paclitaxel; microtubule stabilizer), AZD6244 (Selumetinib; MEK1 & ERK1/2 inhibitor), BEZ235 (Dactolisib; PI3K & mTOR inhibitor), Lapatinib (EGFR and ErbB2 inhibitor), or Velcade (Bortezomib; 20S proteasome inhibitor), 200 nM final concentration in 1×PBS) or with the drugs (200 nM final concentration) and 2-PMPA (5 μM final concentration). After overnight incubation, cell viability was assessed fluorimetrically with the Alamar blue method (Invitrogen), according to the supplier's protocol.

SMILES: C/C=C(/C)C(=O)O[C@H]1C(C)=C2[C@H]([C@@H]1OC(=O)CCCCCCC)[C@@](C)(OC(C)=O)C[C@H](OC(=O)CCC)[C@@]1(O)[C@H]2OC(=O)[C@@]1(C)O [thapsigargin]
- calcium accumulation in the cytoplasm ([1]; thapsigargin 1 μM, PSMA-expressing cells versus PC3-wt, FIG. 1b): significant buildup of calcium in their cytoplasm

SMILES: N[C@@H](CP(=O)(O)O)C(=O)O [L-AP3]
- cytoplasmic calcium levels ([1]; PSMA-expressing cells, PSMA inhibitor 100 μM, L-AP3 125 μM, FIG. 1c): lowered calcium levels

SMILES: COc1ccc2c(c1)CC[C@@H]1[C@@H]2CC[C@]2(C)[C@@H](NCCCCCCN3C(=O)C=CC3=O)CC[C@@H]12 [U73122]
- cytoplasmic calcium levels ([1]; PSMA inhibition compared with Phospholipase C inhibitor U73122 50 μM, FIG. 1d): reduction in calcium levels

SMILES: CC(C)C[C@H](NC(=O)[C@H](Cc1ccccc1)NC(=O)c1cnccn1)B(O)O [Velcade, Bortezomib]
- sensitivity of PC3-wt cells compared with PC3-PSMA [2]: more sensitive
